Results from ChEMBL document CHEMBL4406843, “β-Amino acid derivatives as mitochondrial complex III inhibitors of L. donovani: A promising chemotype targeting visceral leishmaniasis” (Eur J Med Chem, 2019).
pIC50: −log10 of the molar value. Activity calls are given as the source filed them. The calls are words filed in the database; no cut-off is given here.

What was measured:
[1] = Stability in mouse liver microsomes assessed as compound remaining after 1 hr in presence of NADPH by UPLC analysis; assay type: ADME, Microsome; conditions: read-out: Stability
[2] = test system: J774; test: Immunostimulatory activity in mouse J774 cells infected with Leishmania donovani promastigotes assessed as increase in IL-2 cytokine production at 50 uM after 48 hrs by ELISA; assay type: functional, cell-based
[3] = Cytotoxicity against African green monkey Vero cells assessed as cell viability at 50 uM by MTT assay relative to control; assay type: cell-based; conditions: chlorocebus sabaeus, read-out: Activity
[4] = Toxicity in golden hamster infected with Leishmania donovani amastigotes assessed as effect on body weight at 12.5 to 200 mg/kg, ip administered on alternative days for 4 weeks starting at 4 weeks post-infection; assay type: organism-based, Mesocricetus auratus; conditions: in vivo, 672 h
[5] = test system: Leishmania donovani; test: (§1) Antileishmanial activity against Leishmania donovani amastigotes infected in golden hamster assessed as reduction in parasite burden in liver at 50 mg/kg, ip administered on alternative days for 4 weeks starting at 4 weeks post-infection and measured after 2 week post last dose Giemsa staining-based assay relative to control; assay type: functional
[6] = AUC(0 to 24 hrs) in BALB/c mouse at 50 mg/kg, ip by HPLC analysis; assay type: ADME, organism-based; design: dose 50 mg/kg, time < 24 hr, route intraperitoneal; conditions: in vivo
[7] = test system: Leishmania donovani; test: Antileishmanial activity against Leishmania donovani MHOM/IN/80/Dd8 amastigotes harboring luciferase reporter gene infected in mouse J774 cells at 25 uM after 72 hrs by Steady-Glo luminescence assay relative to control; assay type: functional; conditions: MHOM/IN/80/Dd8, J774, 72 h
[8] = Selectivity index, ratio of CC50 for mouse J774 cells to IC50 for antileishmanial activity against Leishmania donovani MHOM/IN/80/Dd8 amastigotes harboring luciferase reporter gene; assay type: toxicity; conditions: read-out: Ratio CC50/IC50
[9] = test system: Leishmania donovani; test: Induction of ROS generation in Leishmania donovani promastigotes at 50 uM after 6 hrs by H2DCFDA probe based flow cytometry (reference value: 1.97%); assay type: functional
[10] = Stability in simulated gastric fluid at 10 ug/ml measured after 2 hrs by UPLC analysis relative to control; assay type: ADME; conditions: read-out: Stability
[11] = test system: Leishmania donovani; test: Induction of ROS generation in Leishmania donovani promastigotes at 50 uM after 12 hrs by H2DCFDA probe based flow cytometry (reference value: 1.97%); assay type: functional
[12] = Cmax in BALB/c mouse at 50 mg/kg, ip by HPLC analysis; assay type: ADME, organism-based; design: dose 50 mg/kg, route intraperitoneal; conditions: in vivo
[13] = test system: Leishmania donovani; test: Induction of apoptosis in Leishmania donovani promastigotes assessed as early apoptotic cells at 50 uM after 24 hrs by Annexin-V/propidium iodide staining based flow cytometric method (reference value: 5.79%); assay type: functional
[14] = test system: Leishmania donovani; test: Induction of ROS generation in Leishmania donovani promastigotes at 50 uM after 24 hrs by H2DCFDA probe based flow cytometry (reference value: 1.97%); assay type: functional
[15] = test system: Leishmania donovani; test: Antileishmanial activity against promastigote stage of Leishmania donovani MHOM/IN/80/Dd8 harboring luciferase reporter gene at 25 uM after 48 hrs by Steady-Glo luminescence assay relative to control; assay type: functional; conditions: MHOM/IN/80/Dd8, 48 h
[16] = test system: Leishmania donovani; test: as §1, with “spleen” for “liver”; assay type: functional
[17] = test system: Leishmania donovani; test: Antileishmanial activity against promastigote stage of Leishmania donovani MHOM/IN/80/Dd8 harboring luciferase reporter gene at 100 uM after 48 hrs by Steady-Glo luminescence assay relative to control; assay type: functional; conditions: MHOM/IN/80/Dd8, 48 h
[18] = test system: Leishmania donovani; test: Inhibition of succinate-ubiquinone oxidoreductase in Leishmania donovani promastigotes mitochondria at 8.1 to 50 uM using succinate as substrate in presence fo DCPIP by photometry analysis
[19] = test system: Leishmania donovani; test: Induction of ROS generation in Leishmania donovani promastigotes at 50 uM after 48 hrs by H2DCFDA probe based flow cytometry (reference value: 1.97%); assay type: functional
[20] = Cytotoxicity against BALB/c mouse splenocytes assessed as cell viability at 100 uM after 72 hrs by MTT assay relative to control; assay type: cell-based, Splenocyte; conditions: read-out: Activity
[21] = Toxicity in golden hamster infected with Leishmania donovani amastigotes assessed as reduction in serum AST level at 50 mg/kg , ip and measured after 10 weeks post infection (reference value: 113 U/L); assay type: organism-based, Mesocricetus auratus; conditions: in vivo, 1680 h
[22] = test system: Leishmania donovani; test: Induction of mitochondrial dysfunction in Leishmania donovani promastigotes assessed as reduction in mitochondrial membrane potential at 50 uM after 24 hrs by JC-1 staining-based flow cytometric analysis (reference value: 7.73%); assay type: functional; design: scale not given: the % may be the effect or the level left
[23] = Toxicity in BALB/c mouse infected with Leishmania donovani promastigotes assessed as survival at 12.5 to 200 mg/kg, ip administered for 7 days starting at 15 days post-infection; assay type: organism-based; conditions: in vivo
[24] = test system: Leishmania donovani; test: Induction of mitochondrial dysfunction in Leishmania donovani promastigotes assessed as reduction in mitochondrial membrane potential at 50 uM after 3 hrs by JC-1 staining-based flow cytometric analysis (reference value: 7.73%); assay type: functional; design: scale not given: the % may be the effect or the level left
[25] = test system: Leishmania donovani; test: Induction of mitochondrial dysfunction in Leishmania donovani promastigotes assessed as reduction in mitochondrial membrane potential at 50 uM after 6 hrs by JC-1 staining-based flow cytometric analysis (reference value: 7.73%); assay type: functional; design: scale not given: the % may be the effect or the level left
[26] = test system: Leishmania donovani; test: Induction of apoptosis in Leishmania donovani promastigotes assessed as necrotic cells at 50 uM after 24 hrs by Annexin-V/propidium iodide staining based flow cytometric method (reference value: 0.06%); assay type: functional
[27] = test system: Leishmania donovani; test: Antileishmanial activity against Leishmania donovani promastigotes infected in BALB/c mouse assessed as inhibition in parasite burden in spleen at 200 mg/kg, ip administered for 7 days starting at 15 days post-infection and measured after 1 week post last dose Giemsa staining-based assay relative to control; assay type: functional
[28] = Cytotoxicity against African green monkey Vero cells assessed as reduction in cell viability after 72 hrs by MTT assay; assay type: cell-based; conditions: chlorocebus sabaeus
[29] = test system: Leishmania donovani; test: Antileishmanial activity against promastigote stage of Leishmania donovani MHOM/IN/80/Dd8 harboring luciferase reporter gene at 50 uM after 48 hrs by Steady-Glo luminescence assay relative to control; assay type: functional; conditions: MHOM/IN/80/Dd8, 48 h
[30] = test system: Leishmania donovani; test: Induction of membrane depolarization in Leishmania donovani promastigotes assessed as increase in fluorescence at IC50 by DiBAC4 dye based flow cytometry analysis; assay type: functional, organism-based; conditions: TDE = time-dependent effect
[31] = Toxicity in BALB/c mouse infected with Leishmania donovani promastigotes assessed as serum AST level at 50 mg/kg , ip measured after 3 to 7 weeks (reference value: 114 U/L); assay type: organism-based; conditions: in vivo
[32] = test system: Leishmania donovani; test: Induction of apoptosis in Leishmania donovani promastigotes assessed as late apoptotic cells at 50 uM after 48 hrs by Annexin-V/propidium iodide staining based flow cytometric method (reference value: 0.59%); assay type: functional
[33] = test system: Leishmania donovani; test: Induction of membrane depolarization in Leishmania donovani promastigotes assessed as increase in fluorescence at MIC by DiBAC4 dye based flow cytometry analysis; assay type: functional, organism-based; conditions: TDE = time-dependent effect
[34] = test system: Leishmania donovani; test: Induction of apoptosis in Leishmania donovani promastigotes assessed as necrotic cells at 50 uM after 48 hrs by Annexin-V/propidium iodide staining based flow cytometric method (reference value: 0.06%); assay type: functional
[35] = test system: Leishmania donovani; test: Antileishmanial activity against Leishmania donovani MHOM/IN/80/Dd8 amastigotes harboring luciferase reporter gene infected in mouse J774 cells after 48 hrs by Giemsa staining-based microscopic assay; assay type: functional, organism-based; conditions: MHOM/IN/80/Dd8, J774, 48 h
[36] = Cytotoxicity against mouse J774 cells assessed as cell viability up to 100 uM after 72 hrs by MTT assay relative to control; assay type: cell-based; conditions: read-out: Activity

## CCOC(=O)C(C(=O)c1ccc(OC)cc1)C(NC(C)=O)c1cccc2ccccc12 (stereo unspecified)
[1]
  remaining at 1 h: 86.9%
[2]
  Activity: inactive
[3]
  viability at 50 µM: 98.7%
[4]
  Activity: Non-Toxic
[5]
  inhibition in vivo at 50 mg/kg: 88.2%
[6]
  AUC(0-t) at 24 h: 1280 ng·h/mL
[7]
  inhibition at 25 µM: 64.1%
[8]
  selectivity ratio: 23.4
[9]
  Activity: 30.3%
[10]
  remaining at 2 h, 10 ug/ml: 81.9%
[11]
  Activity: 50.35%
[12]
  Cmax: 2080 ng/mL
[13]
  Activity: 8.56%
[14]
  Activity: 85.54%
[15]
  inhibition at 25 µM: 85.3%
[16]
  inhibition in vivo at 50 mg/kg: 90.4%
[17]
  inhibition at 100 µM: 97.1%
[18]
  inhibition: inactive
[19]
  Activity: 65.74%
[20]
  viability at 72 h, 100 µM: > 90.2%
[21]
  Activity: 92 IU/L
[22]
  Activity: 63.61%
[23]
  Activity: Non-Toxic
[24]
  Activity: 8.62%
[25]
  Activity: 19.52%
[26]
  Activity: 0.07%
[27]
  inhibition in vivo at 200 mg/kg: 93.1%
[28]
  CC50 at 72 h: > 350 µM
[29]
  inhibition at 50 µM: 96.6%
[30]
  Activity: Tde
[31]
  Activity: 54 to 298 IU/L
[32]
  Activity: 2.65%
[33]
  Activity: Tde
[34]
  Activity: 0.11%
[35]
  pIC50: 4.77
[36]
  viability at 72 h: > 93%
